This note sets out measurements from patent publication US20250230193A1, “CYCLIC COMPOUND HAVING SELECTIVE KRAS INHIBITORY EFFECT ON HRAS AND NRAS” (CHUGAI SEIYAKU KABUSHIKI KAISHA, priority 2022, published 2025).

Experiment [1] deals with GDP-bound HRAS wild-type protein (Homo sapiens, UniProt P01112). Description: Binding to HRAS by surface plasmon resonance (SPR), Single Cycle Kinetics. The conditions noted are these: KD ratio, GDP-bound HRAS wild-type vs GDP-bound KRAS wild-type, SPR. For orientation: SPR reads the build-up and loss of mass on a sensor chip optically.
GDP-bound HRAS wild-type protein, sequence (P01112 whole entry): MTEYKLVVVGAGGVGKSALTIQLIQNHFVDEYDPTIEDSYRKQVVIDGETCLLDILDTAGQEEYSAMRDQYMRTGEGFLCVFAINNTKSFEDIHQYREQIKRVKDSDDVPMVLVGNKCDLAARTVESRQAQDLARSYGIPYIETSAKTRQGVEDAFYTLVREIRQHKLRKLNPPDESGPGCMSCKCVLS
Experiment [2] addresses GDP-bound NRAS wild-type protein (Homo sapiens, UniProt P01111). Description: Binding to NRAS by surface plasmon resonance (SPR), Single Cycle Kinetics. The conditions noted are these: KD ratio, GDP-bound NRAS wild-type vs GDP-bound KRAS wild-type, SPR.

GDP-bound NRAS wild-type protein, sequence (P01111 whole entry): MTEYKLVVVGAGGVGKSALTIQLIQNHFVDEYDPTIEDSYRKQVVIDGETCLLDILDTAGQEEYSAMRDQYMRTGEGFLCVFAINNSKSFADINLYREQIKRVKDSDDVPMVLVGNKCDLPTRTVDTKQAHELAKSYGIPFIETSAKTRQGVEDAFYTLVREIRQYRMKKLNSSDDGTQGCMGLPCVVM

For `CC[C@H](C)[C@@H]1NC(=O)[C@H](CC(C)C)N(C)C(=O)C[C@@H](C(=O)N2CCOCC2)N(C)C(=O)[C@H](C2CCCC2)N(C)C(=O)C2(CCCC2)NC(=O)[C@@H]2CC(F)(F)CN2C(=O)[C@H](CCc2ccc(C(F)(F)F)c(Cl)c2)NC(=O)CN(C)C(=O)[C@H](Cc2ccc(F)cc2)N2CCCCC[C@@H](C2=O)N(C)C(=O)CN(C)C1=O` [PP0966], in experiment [1], the “HRAS/KRAS (ratio of KD value with respect to HRAS to KD value with respect to KRAS)” value is “B (a compound having 3 or more and less than 10 is denoted as B)”. Also, in experiment [2], the “NRAS/KRAS (ratio of KD value with respect to NRAS to KD value with respect to KRAS)” value is “B (a compound having 3 or more and less than 10 is denoted as B)”.
As to `CC[C@H](C)[C@@H]1NC(=O)[C@H](CC(C)C)N(C)C(=O)C[C@@H](C(=O)N2CCOCC2)N(C)C(=O)[C@H](C2CCCC2)N(C)C(=O)C2(CCC2)NC(=O)[C@@H]2CCCN2C(=O)[C@H](CCc2ccc(C(F)(F)F)c(Cl)c2)NC(=O)CN(C)C(=O)[C@H](Cc2ccc(F)cc2)N2CCCCC[C@@H](C2=O)N(C)C(=O)CN(C)C1=O` [PP0967], the “HRAS/KRAS (ratio of KD value with respect to HRAS to KD value with respect to KRAS)” value in experiment [1] is “B (a compound having 3 or more and less than 10 is denoted as B)”. For the same compound, in experiment [2], the “NRAS/KRAS (ratio of KD value with respect to NRAS to KD value with respect to KRAS)” value was “B (a compound having 3 or more and less than 10 is denoted as B)”.
Regarding `CCO[C@@H]1C[C@H]2C(=O)NC3(CCC3)C(=O)N(C)[C@@H](C3CCCC3)C(=O)N(C)[C@H](C(=O)N3CCOCC3)CC(=O)N(C)[C@@H](CC(C)C)C(=O)N[C@@H]([C@@H](C)CC)C(=O)N(C)CC(=O)N(C)[C@H]3CCCCCN(C3=O)[C@@H](Cc3ccc(F)cc3)C(=O)N(C)CC(=O)N[C@@H](CCc3ccc(C(F)(F)F)c(Cl)c3)C(=O)N2C1` [PP0968], the “HRAS/KRAS (ratio of KD value with respect to HRAS to KD value with respect to KRAS)” value in experiment [1] was “B (a compound having 3 or more and less than 10 is denoted as B)”. Further, the “NRAS/KRAS (ratio of KD value with respect to NRAS to KD value with respect to KRAS)” value in experiment [2] was “B (a compound having 3 or more and less than 10 is denoted as B)”.
On to `CC[C@H](C)[C@@H]1NC(=O)[C@H](CC(C)C)N(C)C(=O)C[C@@H](C(=O)N2CCOCC2)N(C)C(=O)[C@H](C2CCCC2)N(C)C(=O)C2(CCC2)NC(=O)[C@@H]2CC(F)(F)CN2C(=O)[C@H](CCc2ccc(C(F)(F)F)c(Cl)c2)NC(=O)CN(C)C(=O)[C@H](Cc2ccc(F)cc2)N2CCCCC[C@@H](C2=O)N(C)C(=O)CN(C)C1=O` [PP0969], for which the “HRAS/KRAS (ratio of KD value with respect to HRAS to KD value with respect to KRAS)” value in experiment [1] was “B (a compound having 3 or more and less than 10 is denoted as B)”. The “NRAS/KRAS (ratio of KD value with respect to NRAS to KD value with respect to KRAS)” value in experiment [2] was “B (a compound having 3 or more and less than 10 is denoted as B)”.
As for `CC[C@H](C)[C@@H]1NC(=O)[C@H](CC(C)C)N(C)C(=O)C[C@@H](C(=O)N2CCOCC2)N(CC)C(=O)[C@H](C2CCCC2)N(C)C(=O)C2(CCCC2)NC(=O)[C@@H]2CCCN2C(=O)[C@H](CCc2ccc(C(F)(F)F)c(Cl)c2)NC(=O)CN(C)C(=O)[C@H](Cc2ccc(F)cc2)N2CCCCC[C@@H](C2=O)N(C)C(=O)CN(C)C1=O` [PP0970], the “HRAS/KRAS (ratio of KD value with respect to HRAS to KD value with respect to KRAS)” value in experiment [1] was “B (a compound having 3 or more and less than 10 is denoted as B)”. Moreover, in experiment [2], the “NRAS/KRAS (ratio of KD value with respect to NRAS to KD value with respect to KRAS)” value is “B (a compound having 3 or more and less than 10 is denoted as B)”.
Consider `CC[C@H](C)[C@@H]1NC(=O)[C@H](CC(C)C)N(C)C(=O)C[C@@H](C(=O)N(C)C)N(C)C(=O)[C@H](C2CCCC2)N(C)C(=O)C2(CCCC2)NC(=O)[C@@H]2CCCN2C(=O)[C@H](CCc2ccc(C(F)(F)F)c(Cl)c2)NC(=O)CN(C)C(=O)[C@H](Cc2ccc(F)cc2)N2CCCCC[C@@H](C2=O)N(C)C(=O)CN(C)C1=O` [PP0971], for which the “HRAS/KRAS (ratio of KD value with respect to HRAS to KD value with respect to KRAS)” value in experiment [1] is “B (a compound having 3 or more and less than 10 is denoted as B)”. Besides, the “NRAS/KRAS (ratio of KD value with respect to NRAS to KD value with respect to KRAS)” value in experiment [2] was “B (a compound having 3 or more and less than 10 is denoted as B)”.
On to `CCO[C@@H]1C[C@H]2C(=O)NC3(CCC3)C(=O)N(C)[C@@H](C3CCCC3)C(=O)N(C)[C@H](C(=O)N(C)C)CC(=O)N(C)[C@@H](CC(C)C)C(=O)N[C@@H]([C@@H](C)CC)C(=O)N(C)CC(=O)N(C)[C@H]3CCCCCN(C3=O)[C@@H](Cc3ccc(F)cc3)C(=O)N(C)CC(=O)N[C@@H](CCc3ccc(C(F)(F)F)c(Cl)c3)C(=O)N2C1` [PP0972], for which the “HRAS/KRAS (ratio of KD value with respect to HRAS to KD value with respect to KRAS)” value in experiment [1] was “B (a compound having 3 or more and less than 10 is denoted as B)”. Besides, in experiment [2], the “NRAS/KRAS (ratio of KD value with respect to NRAS to KD value with respect to KRAS)” value was “B (a compound having 3 or more and less than 10 is denoted as B)”.
`CC[C@H](C)[C@@H]1NC(=O)[C@H](CC(C)C)N(C)C(=O)C[C@@H](C(=O)N(C)C)N(C)C(=O)[C@H](C2CCCC2)N(C)C(=O)C2(CCC2)NC(=O)[C@@H]2CC(F)(F)CN2C(=O)[C@H](CCc2ccc(C(F)(F)F)c(Cl)c2)NC(=O)CN(C)C(=O)[C@H](Cc2ccc(F)cc2)N2CCCCC[C@@H](C2=O)N(C)C(=O)CN(C)C1=O` [PP0973]: the “HRAS/KRAS (ratio of KD value with respect to HRAS to KD value with respect to KRAS)” value in experiment [1] is “B (a compound having 3 or more and less than 10 is denoted as B)”. Further, the “NRAS/KRAS (ratio of KD value with respect to NRAS to KD value with respect to KRAS)” value in experiment [2] was “B (a compound having 3 or more and less than 10 is denoted as B)”.
On to `CCO[C@@H]1C[C@H]2C(=O)NC3(CCC3)C(=O)N(C)[C@@H](C3CCCC3)C(=O)N(CCC3CCCC3)[C@H](C(=O)N(C)C)CC(=O)N(C)[C@@H](CC(C)C)C(=O)N[C@@H]([C@@H](C)CC)C(=O)N(C)CC(=O)N(C)[C@H]3CCCCCN(C3=O)[C@@H](Cc3ccc(F)cc3)C(=O)N(C)CC(=O)N[C@@H](CCc3ccc(C(F)(F)F)c(Cl)c3)C(=O)N2C1` [PP0976], for which, in experiment [1], the “HRAS/KRAS (ratio of KD value with respect to HRAS to KD value with respect to KRAS)” value is “B (a compound having 3 or more and less than 10 is denoted as B)”. For the same compound, in experiment [2], the “NRAS/KRAS (ratio of KD value with respect to NRAS to KD value with respect to KRAS)” value was “B (a compound having 3 or more and less than 10 is denoted as B)”.
Consider `CC[C@H](C)[C@@H]1NC(=O)[C@H](CC(C)C)N(C)C(=O)C[C@@H](C(=O)N(C)C)N(CCC2CCCC2)C(=O)[C@H](C2CCCC2)N(C)C(=O)C2(CCC2)NC(=O)[C@@H]2CC(F)(F)CN2C(=O)[C@H](CCc2ccc(C(F)(F)F)c(Cl)c2)NC(=O)CN(C)C(=O)[C@H](Cc2ccc(F)cc2)N2CCCCC[C@@H](C2=O)N(C)C(=O)CN(C)C1=O` [PP0977], for which, in experiment [1], the “HRAS/KRAS (ratio of KD value with respect to HRAS to KD value with respect to KRAS)” value was “A (a compound having 10 or more and less than 20 is denoted as A)”. For the same compound, the “NRAS/KRAS (ratio of KD value with respect to NRAS to KD value with respect to KRAS)” value in experiment [2] was “B (a compound having 3 or more and less than 10 is denoted as B)”.
Consider `CCO[C@@H]1C[C@H]2C(=O)NC3(CCC3)C(=O)N(C)[C@@H](C3CCCC3)C(=O)N(C)[C@H](C(=O)N(C)C)CC(=O)N(C)[C@@H](CC)C(=O)N[C@@H]([C@@H](C)CC)C(=O)N(C)CC(=O)N(C)[C@H]3C/C=C\CCN(C3=O)[C@@H](Cc3ccc(C(F)(F)F)cc3)C(=O)N(C)CC(=O)N[C@@H](CCc3ccc(C(F)(F)F)c(Cl)c3)C(=O)N2C1` [PP0978], for which the “HRAS/KRAS (ratio of KD value with respect to HRAS to KD value with respect to KRAS)” value in experiment [1] was “B (a compound having 3 or more and less than 10 is denoted as B)”. In addition, the “NRAS/KRAS (ratio of KD value with respect to NRAS to KD value with respect to KRAS)” value in experiment [2] is “A (a compound having 10 or more and less than 20 is denoted as A)”.
